{
  "source": "patent US20100216751A1",
  "about": "(priority 2007, published 2010)",
  "test": "Pharmacokinetic evaluation of liquid bevirimat dosage forms, oral gavage, male Cynomolgus monkeys",
  "settings": "male, cynomolgus monkey, in vivo, po; for AUC / Cmax / half-life / Tmax: 200 mg",
  "description": "Six male Cynomolgus monkeys having an initial body weight of about 3.5 to about 4.5 kg are allowed 7 days to acclimate to their individual housing units. Monkeys are supplied with water and a commercial diet ad libitum prior to the study initiation. Food is withheld from the monkeys for a minimum of twelve hours before the study and during the study until four hours postdose when food is returned. Water is supplied ad libitum.\nTest formulations are administered to the monkeys at time 0 on appropriate days. Test formulations will be dosed orally via oral gavage or intravenously.\nSamples are drawn at the frequencies indicated below. Each blood sample (0.5 mL) is collected from the monkey's saphenous vein via a butterfly catheter and placed into a chilled polypropylene tube containing sodium heparin as the anticoagulant. Blood samples are centrifuged at a temperature of 4° C. at a speed of 3,000 rpm for 15 minutes. All samples are maintained chilled throughout processing. Plasma is collected after centrifugation, pipetted into a 2-mL polypropylene microtube, and frozen on dry-ice pending analytical evaluation.",
  "key": {"[1]": {"settings": "50 mg/monkey, Plasma Concentration, PG/glycerin/Vitamin ETPGS/Tween80/Plasdone C15 formulation, AVG"}, "[2]": {"settings": "50 mg/monkey, Plasma Concentration, PG/glycerin/Vitamin ETPGS/Tween80/Plasdone C15 formulation, individual monkey"}, "[3]": {"settings": "50 mg/monkey, Plasma Concentration, PG/glycerin/Vitamin ETPGS/ethanol formulation, AVG"}, "[4]": {"settings": "50 mg/monkey, Plasma Concentration, PG/glycerin/Vitamin ETPGS/ethanol formulation, individual monkey"}, "[5]": {"settings": "200 mg/monkey, Plasma Concentration, PG/glycerin/Vitamin ETPGS/ethanol formulation, AVG"}, "[6]": {"settings": "200 mg/monkey, Plasma Concentration, PG/glycerin/Vitamin ETPGS/ethanol formulation, individual monkey"}},
  "data": [
    {"smiles": "C=C(C)[C@@H]1CC[C@]2(C(=O)O)CC[C@]3(C)[C@H](CC[C@@H]4[C@@]5(C)CC[C@H](OC(=O)CC(C)(C)C(=O)O)C(C)(C)[C@@H]5CC[C@]43C)[C@@H]12", "note": "[Bevirimat, 3-O-(3′,3′-dimethylsuccinyl)betulinic acid]", "values": [
      {"measurement": "concentration at 1 h", "setting": "50 mg/monkey, Plasma Concentration, PG/glycerin/Vitamin ETPGS/Tween80/Plasdone C15 formulation, 1.0 hr, AVG", "result": 24800, "unit": "ng/mL"},
      {"measurement": "concentration at 2 h", "setting": "[1]", "result": 61600, "unit": "ng/mL"},
      {"measurement": "concentration at 2 h", "setting": "[2]", "result": 52700, "unit": "ng/mL"},
      {"measurement": "concentration at 4 h", "setting": "[1]", "result": 53600, "unit": "ng/mL"},
      {"measurement": "concentration at 4 h", "setting": "[2]", "result": 55100, "unit": "ng/mL"},
      {"measurement": "concentration at 6 h", "setting": "[1]", "result": 32300, "unit": "ng/mL"},
      {"measurement": "concentration at 6 h", "setting": "[2]", "result": 31500, "unit": "ng/mL"},
      {"measurement": "concentration at 8 h", "setting": "50 mg/monkey, Plasma Concentration, PG/glycerin/Vitamin ETPGS/Tween80/Plasdone C15 formulation, 8.0 hr, AVG", "result": 21000, "unit": "ng/mL"},
      {"measurement": "concentration at 8 h", "setting": "50 mg/monkey, Plasma Concentration, PG/glycerin/Vitamin ETPGS/Tween80/Plasdone C15 formulation, 8.0 hr, individual monkey", "result": 22300, "unit": "ng/mL"},
      {"measurement": "concentration at 12 h", "setting": "50 mg/monkey, Plasma Concentration, PG/glycerin/Vitamin ETPGS/Tween80/Plasdone C15 formulation, 12 hr, AVG", "result": 8160, "unit": "ng/mL"},
      {"measurement": "concentration at 12 h", "setting": "50 mg/monkey, Plasma Concentration, PG/glycerin/Vitamin ETPGS/Tween80/Plasdone C15 formulation, 12 hr, individual monkey", "result": 8580, "unit": "ng/mL"},
      {"measurement": "concentration at 24 h", "setting": "50 mg/monkey, Plasma Concentration, PG/glycerin/Vitamin ETPGS/Tween80/Plasdone C15 formulation, 24 hr, AVG", "result": 1270, "unit": "ng/mL"},
      {"measurement": "concentration at 24 h", "setting": "50 mg/monkey, Plasma Concentration, PG/glycerin/Vitamin ETPGS/Tween80/Plasdone C15 formulation, 24 hr, individual monkey", "result": 1320, "unit": "ng/mL"},
      {"measurement": "concentration at 48 h", "setting": "50 mg/monkey, Plasma Concentration, PG/glycerin/Vitamin ETPGS/Tween80/Plasdone C15 formulation, 48 hr, AVG", "result": 336, "unit": "ng/mL"},
      {"measurement": "concentration at 72 h", "setting": "50 mg/monkey, Plasma Concentration, PG/glycerin/Vitamin ETPGS/Tween80/Plasdone C15 formulation, 72 hr, individual monkey", "result": 112, "unit": "ng/mL"},
      {"measurement": "concentration at 0.25 h", "setting": "50 mg/monkey, Plasma Concentration, PG/glycerin/Vitamin ETPGS/ethanol formulation, 0.25 hr, individual monkey", "result": 78.4, "unit": "ng/mL"},
      {"measurement": "concentration at 0.5 h", "setting": "50 mg/monkey, Plasma Concentration, PG/glycerin/Vitamin ETPGS/ethanol formulation, 0.50 hr, AVG", "result": 246, "unit": "ng/mL"},
      {"measurement": "concentration at 1 h", "setting": "50 mg/monkey, Plasma Concentration, PG/glycerin/Vitamin ETPGS/ethanol formulation, 1.0 hr, AVG", "result": 36900, "unit": "ng/mL"},
      {"measurement": "concentration at 2 h", "setting": "[3]", "result": 60100, "unit": "ng/mL"},
      {"measurement": "concentration at 2 h", "setting": "[4]", "result": 58900, "unit": "ng/mL"},
      {"measurement": "concentration at 4 hr", "setting": "[3]", "result": 42500, "unit": "ng/mL"},
      {"measurement": "concentration at 4 h", "setting": "[4]", "result": 34500, "unit": "ng/mL"},
      {"measurement": "concentration at 6 hr", "setting": "[3]", "result": 23000, "unit": "ng/mL"},
      {"measurement": "concentration at 8 hr", "setting": "50 mg/monkey, Plasma Concentration, PG/glycerin/Vitamin ETPGS/ethanol formulation, 8.0 hr, AVG", "result": 14700, "unit": "ng/mL"},
      {"measurement": "concentration at 12 hr", "setting": "50 mg/monkey, Plasma Concentration, PG/glycerin/Vitamin ETPGS/ethanol formulation, 12 hr, AVG", "result": 5310, "unit": "ng/mL"},
      {"measurement": "concentration at 24 hr", "setting": "50 mg/monkey, Plasma Concentration, PG/glycerin/Vitamin ETPGS/ethanol formulation, 24 hr, AVG", "result": 1340, "unit": "ng/mL"},
      {"measurement": "concentration at 48 hr", "setting": "50 mg/monkey, Plasma Concentration, PG/glycerin/Vitamin ETPGS/ethanol formulation, 48 hr, AVG", "result": 149, "unit": "ng/mL"},
      {"measurement": "AUC", "setting": "AUCall", "result": 1300, "unit": "µg·h/mL"},
      {"measurement": "AUC", "setting": "AUCall, 200 mg/monkey, PG/glycerin/Vitamin ETPGS/ethanol formulation, individual monkey", "result": 1200, "unit": "µg·h/mL"},
      {"measurement": "Cmax", "setting": "Cmax, 200 mg/monkey, PG/glycerin/Vitamin ETPGS/ethanol formulation, AVG", "result": 217000, "unit": "ng/mL"},
      {"measurement": "Cmax", "setting": "Cmax, 200 mg/monkey, PG/glycerin/Vitamin ETPGS/ethanol formulation, individual monkey", "result": 202000, "unit": "ng/mL"},
      {"measurement": "AUC", "setting": "pH 8", "result": 1970, "unit": "µg·h/mL"},
      {"measurement": "Cmax", "setting": "pH 8", "result": 225000, "unit": "ng/mL"},
      {"measurement": "half-life", "setting": "pH 8", "result": 8.3, "unit": "h"},
      {"measurement": "AUC", "setting": "pH 8, AUCall", "result": 1390, "unit": "µg·h/mL"},
      {"measurement": "Tmax", "setting": "pH 8, tmax", "result": 2, "unit": "h"},
      {"measurement": "half-life", "setting": "t1/2, oral, 200 mg/monkey, PG/glycerin/Vitamin ETPGS/ethanol formulation, AVG", "result": 10.8, "unit": "h"},
      {"measurement": "half-life", "setting": "t1/2, oral, 200 mg/monkey, PG/glycerin/Vitamin ETPGS/ethanol formulation, individual monkey", "result": 11.4, "unit": "h"},
      {"measurement": "Tmax", "setting": "tmax", "result": 2, "unit": "h"},
      {"measurement": "concentration at 0.25 hr", "setting": "200 mg/monkey, Plasma Concentration, PG/glycerin/Vitamin ETPGS/ethanol formulation, 0.25 hr, AVG", "result": 565, "unit": "ng/mL"},
      {"measurement": "concentration at 0.5 hr", "setting": "200 mg/monkey, Plasma Concentration, PG/glycerin/Vitamin ETPGS/ethanol formulation, 0.50 hr, AVG", "result": 6020, "unit": "ng/mL"},
      {"measurement": "concentration at 1 hr", "setting": "200 mg/monkey, Plasma Concentration, PG/glycerin/Vitamin ETPGS/ethanol formulation, 1.0 hr, AVG", "result": 64800, "unit": "ng/mL"},
      {"measurement": "concentration at 2 hr", "setting": "[5]", "result": 217000, "unit": "ng/mL"},
      {"measurement": "concentration at 2 hr", "setting": "[6]", "result": 202000, "unit": "ng/mL"},
      {"measurement": "concentration at 4 hr", "setting": "[5]", "result": 152000, "unit": "ng/mL"},
      {"measurement": "concentration at 4 hr", "setting": "[6]", "result": 166000, "unit": "ng/mL"},
      {"measurement": "concentration at 6 hr", "setting": "[5]", "result": 77800, "unit": "ng/mL"}
    ]}
  ]
}
